“And” between values parts separate entries of the source, which are not always exact repeats. Equal entries are not always repeated. Each block holds one compound with its values, some of them ahead of it.
Tests used:
Assay in all cases: Competitive isoTOP-ABPP, cell lysates
Format in all cases: binding
[1] = biological target: ZNF217 C286 (O75362) (Homo sapiens, UniProt O75362); details: for R value (DMSO/fragment): 500 μM
[2] = biological target: T1, PDE12 C108 (Q6L8Q7) (Homo sapiens, UniProt Q6L8Q7); details: for R value (DMSO/fragment): 500 μM
T1 sequence (Q6L8Q7 43-609): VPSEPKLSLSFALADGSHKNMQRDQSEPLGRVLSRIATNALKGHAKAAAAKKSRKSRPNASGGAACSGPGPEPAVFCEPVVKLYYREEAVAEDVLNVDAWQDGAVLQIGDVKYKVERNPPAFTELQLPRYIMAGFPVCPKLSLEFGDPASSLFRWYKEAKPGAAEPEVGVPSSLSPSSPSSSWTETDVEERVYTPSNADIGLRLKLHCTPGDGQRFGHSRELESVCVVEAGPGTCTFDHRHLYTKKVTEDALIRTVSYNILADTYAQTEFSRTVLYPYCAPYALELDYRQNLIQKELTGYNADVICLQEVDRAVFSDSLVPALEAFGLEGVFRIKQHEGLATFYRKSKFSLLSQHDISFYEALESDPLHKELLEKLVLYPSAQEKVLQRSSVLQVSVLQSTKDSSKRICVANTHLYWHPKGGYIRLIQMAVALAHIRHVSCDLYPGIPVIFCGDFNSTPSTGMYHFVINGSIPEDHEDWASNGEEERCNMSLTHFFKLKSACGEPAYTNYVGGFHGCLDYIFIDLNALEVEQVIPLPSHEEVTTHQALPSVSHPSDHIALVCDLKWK

[3] = biological target: GSTP1 C48 (P09211) (Homo sapiens, UniProt P09211); details: for R value (DMSO/fragment): 500 μM
[4] = biological target: PRMT1 C109 (Q99873) (Homo sapiens, UniProt Q99873); details: for R value (DMSO/fragment): 500 μM
[5] = biological target: T2, MGMT C150 (P16455) (Homo sapiens, UniProt P16455); details: for R value (DMSO/fragment): 500 μM, invitro, ramos
T2 sequence (P16455 1-207): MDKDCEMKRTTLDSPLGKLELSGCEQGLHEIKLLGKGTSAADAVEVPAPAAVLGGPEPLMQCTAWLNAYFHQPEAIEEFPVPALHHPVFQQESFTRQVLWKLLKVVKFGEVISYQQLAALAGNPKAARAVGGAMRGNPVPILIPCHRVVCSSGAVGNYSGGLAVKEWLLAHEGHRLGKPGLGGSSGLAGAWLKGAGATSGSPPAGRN

[6] = biological target: T3, PDIA6 C190 (Q15084) (Homo sapiens, UniProt Q15084); details: for R value (DMSO/fragment): 500 μM
T3 sequence (Q15084 20-440): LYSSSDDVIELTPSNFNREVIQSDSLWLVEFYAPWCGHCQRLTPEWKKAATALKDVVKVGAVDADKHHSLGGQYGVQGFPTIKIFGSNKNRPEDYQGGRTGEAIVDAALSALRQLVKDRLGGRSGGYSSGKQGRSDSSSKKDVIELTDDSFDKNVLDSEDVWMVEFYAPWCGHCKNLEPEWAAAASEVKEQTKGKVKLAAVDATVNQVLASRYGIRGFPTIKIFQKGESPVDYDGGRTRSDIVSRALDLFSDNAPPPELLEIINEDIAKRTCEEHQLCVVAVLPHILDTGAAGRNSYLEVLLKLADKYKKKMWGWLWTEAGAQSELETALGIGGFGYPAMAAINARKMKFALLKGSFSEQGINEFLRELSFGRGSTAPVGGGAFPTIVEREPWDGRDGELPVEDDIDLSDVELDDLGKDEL

[7] = biological target: XPO1 C34 (O14980) (Homo sapiens, UniProt O14980); details: for R value (DMSO/fragment): 500 μM
[8] = biological target: GNB2L1 C182 (P63244) (Homo sapiens, UniProt P63244); details: for R value (DMSO/fragment): 500 μM
[9] = biological target: DCUN1D1 C115 (Q96GG9) (Homo sapiens, UniProt Q96GG9); details: for R value (DMSO/fragment): 500 μM, invitro, ramos
Chain of DCUN1D1 C115 (Q96GG9) (Q96GG9 whole entry, the tested form may be a part): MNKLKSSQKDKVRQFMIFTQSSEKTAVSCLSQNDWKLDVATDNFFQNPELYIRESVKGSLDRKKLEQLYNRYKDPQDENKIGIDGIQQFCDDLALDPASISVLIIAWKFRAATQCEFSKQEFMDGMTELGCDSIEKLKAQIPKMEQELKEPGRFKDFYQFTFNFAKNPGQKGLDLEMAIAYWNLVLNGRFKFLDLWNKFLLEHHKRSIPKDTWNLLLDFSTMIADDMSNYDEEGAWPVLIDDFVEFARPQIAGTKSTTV

Chain of ZNF217 C286 (O75362) (O75362 whole entry, the tested form may be a part): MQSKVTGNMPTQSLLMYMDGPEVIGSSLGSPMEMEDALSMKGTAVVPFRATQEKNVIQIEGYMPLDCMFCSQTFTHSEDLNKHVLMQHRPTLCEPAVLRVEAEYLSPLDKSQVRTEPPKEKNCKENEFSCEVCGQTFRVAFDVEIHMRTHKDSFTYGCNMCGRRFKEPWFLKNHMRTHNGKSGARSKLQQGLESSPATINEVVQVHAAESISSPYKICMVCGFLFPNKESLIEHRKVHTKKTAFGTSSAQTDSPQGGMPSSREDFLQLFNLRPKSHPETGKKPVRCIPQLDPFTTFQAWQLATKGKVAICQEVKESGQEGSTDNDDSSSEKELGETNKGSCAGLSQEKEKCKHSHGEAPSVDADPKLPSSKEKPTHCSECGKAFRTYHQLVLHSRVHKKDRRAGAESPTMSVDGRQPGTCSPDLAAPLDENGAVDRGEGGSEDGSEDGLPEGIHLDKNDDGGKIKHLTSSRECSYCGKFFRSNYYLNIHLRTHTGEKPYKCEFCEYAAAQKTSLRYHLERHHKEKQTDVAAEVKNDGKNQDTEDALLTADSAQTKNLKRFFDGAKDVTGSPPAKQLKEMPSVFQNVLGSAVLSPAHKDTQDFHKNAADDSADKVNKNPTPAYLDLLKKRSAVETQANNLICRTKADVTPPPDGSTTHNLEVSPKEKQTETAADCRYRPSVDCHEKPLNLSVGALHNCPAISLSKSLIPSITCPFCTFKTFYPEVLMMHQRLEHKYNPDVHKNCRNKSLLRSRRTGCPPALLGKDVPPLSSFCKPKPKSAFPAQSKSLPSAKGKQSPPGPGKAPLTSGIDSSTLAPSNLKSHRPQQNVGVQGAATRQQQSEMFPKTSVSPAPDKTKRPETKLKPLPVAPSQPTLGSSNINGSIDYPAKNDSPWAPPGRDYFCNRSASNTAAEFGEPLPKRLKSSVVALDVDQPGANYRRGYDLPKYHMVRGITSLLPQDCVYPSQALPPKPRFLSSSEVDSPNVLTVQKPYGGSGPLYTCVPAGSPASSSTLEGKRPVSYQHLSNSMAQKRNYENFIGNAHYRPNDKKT
Chain of XPO1 C34 (O14980) (O14980 whole entry, the tested form may be a part): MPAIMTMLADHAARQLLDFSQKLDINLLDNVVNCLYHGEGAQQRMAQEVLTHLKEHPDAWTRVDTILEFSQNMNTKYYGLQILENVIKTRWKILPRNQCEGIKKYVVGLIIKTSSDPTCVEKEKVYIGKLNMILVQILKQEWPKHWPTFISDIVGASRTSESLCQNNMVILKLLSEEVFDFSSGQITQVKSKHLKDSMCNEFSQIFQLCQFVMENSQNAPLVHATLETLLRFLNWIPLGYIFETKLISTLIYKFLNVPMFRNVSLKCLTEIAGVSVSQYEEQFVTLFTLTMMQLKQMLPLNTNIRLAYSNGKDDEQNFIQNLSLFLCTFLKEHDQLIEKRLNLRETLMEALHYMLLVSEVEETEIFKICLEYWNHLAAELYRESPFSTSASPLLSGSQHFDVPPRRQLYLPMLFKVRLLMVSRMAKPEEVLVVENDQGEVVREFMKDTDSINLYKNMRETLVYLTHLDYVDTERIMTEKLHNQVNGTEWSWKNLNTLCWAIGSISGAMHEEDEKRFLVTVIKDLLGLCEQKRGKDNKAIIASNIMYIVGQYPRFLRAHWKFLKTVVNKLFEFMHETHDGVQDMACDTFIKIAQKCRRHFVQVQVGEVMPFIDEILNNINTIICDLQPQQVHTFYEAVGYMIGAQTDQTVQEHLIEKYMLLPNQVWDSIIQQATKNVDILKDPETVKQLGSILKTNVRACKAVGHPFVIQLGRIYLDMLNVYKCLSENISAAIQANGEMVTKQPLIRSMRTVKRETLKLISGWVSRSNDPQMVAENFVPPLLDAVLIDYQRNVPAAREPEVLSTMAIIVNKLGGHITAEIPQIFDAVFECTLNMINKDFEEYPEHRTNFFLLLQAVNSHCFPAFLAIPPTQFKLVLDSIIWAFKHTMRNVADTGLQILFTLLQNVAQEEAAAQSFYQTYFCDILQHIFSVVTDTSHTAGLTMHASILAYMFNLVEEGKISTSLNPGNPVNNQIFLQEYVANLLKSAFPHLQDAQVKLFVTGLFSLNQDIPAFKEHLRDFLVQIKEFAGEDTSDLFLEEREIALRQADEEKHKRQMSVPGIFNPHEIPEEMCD
Chain of GSTP1 C48 (P09211) (P09211 whole entry, the tested form may be a part): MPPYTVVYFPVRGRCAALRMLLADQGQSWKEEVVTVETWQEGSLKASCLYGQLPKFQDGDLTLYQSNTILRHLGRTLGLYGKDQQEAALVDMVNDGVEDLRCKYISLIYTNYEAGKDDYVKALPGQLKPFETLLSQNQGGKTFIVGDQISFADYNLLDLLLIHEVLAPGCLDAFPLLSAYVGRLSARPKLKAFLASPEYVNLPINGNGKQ
Chain of PRMT1 C109 (Q99873) (Q99873 whole entry, the tested form may be a part): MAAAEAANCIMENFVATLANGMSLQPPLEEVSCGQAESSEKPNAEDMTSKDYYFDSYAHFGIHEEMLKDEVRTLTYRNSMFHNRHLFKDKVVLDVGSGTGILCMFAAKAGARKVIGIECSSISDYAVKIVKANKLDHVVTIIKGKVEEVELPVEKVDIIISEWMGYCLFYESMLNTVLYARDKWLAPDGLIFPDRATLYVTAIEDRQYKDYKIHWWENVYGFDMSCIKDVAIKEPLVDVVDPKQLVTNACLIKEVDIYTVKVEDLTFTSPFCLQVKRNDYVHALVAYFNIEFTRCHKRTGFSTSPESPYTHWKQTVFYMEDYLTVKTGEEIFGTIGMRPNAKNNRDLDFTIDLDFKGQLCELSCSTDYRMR

Structure (SMILES): COc1ccc2c(c1)CCCN2C(=O)CCl [compound 2]
R value (DMSO/fragment) ([1]; in vitro, MDA-MB-231): 20.0 | R value (DMSO/fragment) ([1]; invitro, ramos): 20.0 | R value (DMSO/fragment) ([2]; invitro, ramos): 5.1 | R value (DMSO/fragment) ([3]; in vitro, MDA-MB-231): 3.1 | R value (DMSO/fragment) ([3]; invitro, ramos): 1.6 | R value (DMSO/fragment) ([4]; in vitro, MDA-MB-231): 3.1 | R value (DMSO/fragment) ([4]; invitro, ramos): 12.6 | blockade of IA-alkyne labeling of C109 of PRMT1 ([4]; competitive isoTOP-ABPP): blocking IA-alkyne labeling | R value (DMSO/fragment) [5]: 20.0 | R value (DMSO/fragment) ([6]; invitro, ramos): 15.4 | R value (DMSO/fragment) ([7]; in vitro, MDA-MB-231): 2.8 | R value (DMSO/fragment) ([7]; invitro, ramos): 4.6 | R value (DMSO/fragment) ([8]; in vitro, MDA-MB-231): 1.2 | R value (DMSO/fragment) ([8]; invitro, ramos): 1.2 | R value (DMSO/fragment) [9]: 20.0

Structure (SMILES): N#C/C(=C\c1cc(C(F)(F)F)cc(C(F)(F)F)c1)C(N)=O [compound 23]
isoTOP-ABPP ratio (reactivity profile), O75362_C286 ([1]; 500 μm in-vitro ramos_231): 20.0 | isoTOP-ABPP ratio (reactivity profile), Q6L8Q7_C108 ([2]; 500 μm in-vitro ramos_231): 1.0 | isoTOP-ABPP ratio (reactivity profile), P09211_C48 ([3]; 500 μm in-vitro ramos): 0.9 | isoTOP-ABPP ratio (reactivity profile), P09211_C48 ([3]; 500 μm in-vitro ramos_231): 0.8 | isoTOP-ABPP ratio (reactivity profile), Q99873_C109 ([4]; 500 μm in-vitro ramos): 1.0 | isoTOP-ABPP ratio (reactivity profile), Q99873_C109 ([4]; 500 μm in-vitro ramos_231): 0.8 | isoTOP-ABPP ratio (reactivity profile), P16455_C150 ([5]; 500 μm in-vitro ramos): 1.0 | isoTOP-ABPP ratio (reactivity profile), Q15084_C190 ([6]; 500 μm in-vitro ramos): 1.1 | isoTOP-ABPP ratio (reactivity profile), Q15084_C190 ([6]; 500 μm in-vitro ramos_231): 0.8 | isoTOP-ABPP ratio (reactivity profile), O14980_C34 ([7]; 500 μm in-vitro ramos): 5.3 | isoTOP-ABPP ratio (reactivity profile), O14980_C34 ([7]; 500 μm in-vitro ramos_231): 3.4 | isoTOP-ABPP ratio (reactivity profile), P63244_C182 ([8]; 500 μm in-vitro ramos_231): 4.6 | isoTOP-ABPP ratio (reactivity profile), Q96GG9_C115 ([9]; 500 μm in-vitro ramos): 20.0

Results, then the compound that gave them:

R value (DMSO/fragment) ([1]; in vitro, MDA-MB-231): 1.4 | R value (DMSO/fragment) ([2]; in vitro, MDA-MB-231): 3.6 | R value (DMSO/fragment) ([2]; invitro, ramos): 1.8 | R value (DMSO/fragment) ([3]; in vitro, MDA-MB-231): 2.9 | R value (DMSO/fragment) ([3]; invitro, ramos): 1.7 | R value (DMSO/fragment) ([4]; in vitro, MDA-MB-231): 1.3 | R value (DMSO/fragment) ([4]; invitro, ramos): 1.8 | R value (DMSO/fragment) [5]: 17.1 | R value (DMSO/fragment) ([6]; in vitro, MDA-MB-231): 19.9 | R value (DMSO/fragment) ([6]; invitro, ramos): 13.1 | R value (DMSO/fragment) ([7]; in vitro, MDA-MB-231): 1.4 | R value (DMSO/fragment) ([7]; invitro, ramos): 1.6 | R value (DMSO/fragment) ([8]; in vitro, MDA-MB-231): 20.0 | R value (DMSO/fragment) ([8]; invitro, ramos): 4.7 | R value (DMSO/fragment) [9]: 5.5
Structure (SMILES): O=C(CCl)Nc1cc(C(F)(F)F)cc(C(F)(F)F)c1 [compound 3]

isoTOP-ABPP reactivity ratio, O75362_C286 ([1]; 500 μm, in-vitro_ramos): 2.1 | isoTOP-ABPP ratio (reactivity profile), Q6L8Q7_C108 ([2]; 500 μm in-vitro ramos): 1.1 | isoTOP-ABPP reactivity ratio, Q6L8Q7_C108 ([2]; 500 μm, in-vitro_ramos): 1.6 | isoTOP-ABPP ratio (reactivity profile), P09211_C48 ([3]; 500 μm in-vitro ramos): 1.4 | isoTOP-ABPP reactivity ratio, P09211_C48 ([3]; 500 μm, in-vitro_ramos): 1.2 | isoTOP-ABPP ratio (reactivity profile), Q99873_C109 ([4]; 500 μm in-vitro ramos): 1.1 | isoTOP-ABPP reactivity ratio, Q99873_C109 ([4]; 500 μm, in-vitro_ramos): 1.8 | isoTOP-ABPP reactivity ratio, P16455_C150 ([5]; 500 μm, in-vitro_ramos): 5.1 | isoTOP-ABPP ratio (reactivity profile), Q15084_C190 ([6]; 500 μm in-vitro ramos): 2.3 | isoTOP-ABPP ratio (reactivity profile), O14980_C34 ([7]; 500 μm in-vitro ramos): 0.7 | isoTOP-ABPP reactivity ratio, O14980_C34 ([7]; 500 μm, in-vitro_ramos): 1.1 | isoTOP-ABPP ratio (reactivity profile), P63244_C182 ([8]; 500 μm in-vitro ramos): 1.2 | isoTOP-ABPP reactivity ratio, P63244_C182 ([8]; 500 μm, in-vitro_ramos): 1.6 | isoTOP-ABPP ratio (reactivity profile), Q96GG9_C115 ([9]; 500 μm in-vitro ramos): 0.7 | isoTOP-ABPP reactivity ratio, Q96GG9_C115 ([9]; 500 μm, in-vitro_ramos): 1.1
Structure (SMILES): CCN(CC)c1ccc(S(N)(=O)=O)cc1NC(=O)CCl [compound 30]

isoTOP-ABPP ratio (reactivity profile), O75362_C286 ([1]; 500 μm in-vitro ramos): 1.0 | isoTOP-ABPP ratio (reactivity profile), Q6L8Q7_C108 ([2]; 500 μm in-vitro ramos): 1.3 | isoTOP-ABPP ratio (reactivity profile), Q6L8Q7_C108 ([2]; 500 μm in-vitro ramos_231): 0.5 | isoTOP-ABPP ratio (reactivity profile), P09211_C48 ([3]; 500 μm in-vitro ramos): 1.0 | isoTOP-ABPP ratio (reactivity profile), P09211_C48 ([3]; 500 μm in-vitro ramos_231): 1.3 and 1.0 | isoTOP-ABPP ratio (reactivity profile), Q99873_C109 ([4]; 500 μm in-vitro ramos): 1.0 | isoTOP-ABPP ratio (reactivity profile), Q99873_C109 ([4]; 500 μm in-vitro ramos_231): 0.7 and 0.9 | isoTOP-ABPP ratio (reactivity profile), P16455_C150 ([5]; 500 μm in-vitro ramos): 2.3 | isoTOP-ABPP ratio (reactivity profile), P16455_C150 ([5]; 500 μm in-vitro ramos_231): 1.0 | isoTOP-ABPP ratio (reactivity profile), Q15084_C190 ([6]; 500 μm in-vitro ramos): 1.1 | isoTOP-ABPP ratio (reactivity profile), Q15084_C190 ([6]; 500 μm in-vitro ramos_231): 0.9 | isoTOP-ABPP ratio (reactivity profile), O14980_C34 ([7]; 500 μm in-vitro ramos): 1.0 | isoTOP-ABPP ratio (reactivity profile), O14980_C34 ([7]; 500 μm in-vitro ramos_231): 0.9 and 1.0 | isoTOP-ABPP ratio (reactivity profile), P63244_C182 ([8]; 500 μm in-vitro ramos): 1.1 | isoTOP-ABPP ratio (reactivity profile), P63244_C182 ([8]; 500 μm in-vitro ramos_231): 1.0 and 0.8 | isoTOP-ABPP ratio (reactivity profile), Q96GG9_C115 ([9]; 500 μm in-vitro ramos): 1.0 | isoTOP-ABPP ratio (reactivity profile), Q96GG9_C115 ([9]; 500 μm in-vitro ramos_231): 1.1
Structure (SMILES): CC(C)CCOCCNC(=O)CCl [compound 27]
